Test results as given in ChEMBL document CHEMBL1151757, “Synthesis, radiosynthesis, and biological evaluation of fluorine-18-labeled 2beta-carbo(fluoroalkoxy)-3beta-(3'-((Z)-2-haloethenyl)phenyl)nortropanes: candidate radioligands for in vivo imaging of the serotonin transporter with positron emission tomography” (J Med Chem, 2008).

Tests used:
[1] = Ratio of drug uptake in medulla to cerebellum in anesthetized cynomolgus monkey after 165 mins postinjection; type: ADME, organism-based, Macaca fascicularis; conditions: in vivo, 2.75 h
[2] = Drug uptake in anesthetized cynomolgus monkey brain occipital lobe after 15.5 mins postinjection; type: ADME, organism-based, Macaca fascicularis; conditions: in vivo
[3] = Drug uptake in anesthetized cynomolgus monkey brain occipital lobe after 85 mins postinjection; type: ADME, organism-based, Macaca fascicularis; conditions: in vivo
[4] = Drug uptake in anesthetized cynomolgus monkey brain occipital lobe after 95 mins postinjection; type: ADME, organism-based, Macaca fascicularis; conditions: in vivo
[5] = Drug uptake in anesthetized cynomolgus monkey brain frontal lobe after 12.5 mins postinjection; type: ADME, organism-based, Macaca fascicularis; conditions: in vivo
[6] = Drug uptake in anesthetized cynomolgus monkey brain frontal lobe after 35 mins postinjection; type: ADME, organism-based, Macaca fascicularis; conditions: in vivo
[7] = Drug uptake in anesthetized cynomolgus monkey brain frontal lobe after 125 mins postinjection; type: ADME, organism-based, Macaca fascicularis; conditions: in vivo
[8] = Drug uptake in anesthetized cynomolgus monkey brain frontal lobe after 215 mins postinjection; type: ADME, organism-based, Macaca fascicularis; conditions: in vivo
[9] = Ratio of drug uptake in midbrain to cerebellum in anesthetized cynomolgus monkey after 215 mins postinjection; type: ADME, organism-based, Macaca fascicularis; conditions: in vivo
[10] = Ratio of drug uptake in midbrain to cerebellum in anesthetized cynomolgus monkey after 235 mins postinjection; type: ADME, organism-based, Macaca fascicularis; conditions: in vivo
[11] = Ratio of drug uptake in occipital lobe to cerebellum in anesthetized cynomolgus monkey after 95 mins postinjection; type: ADME, organism-based, Macaca fascicularis; conditions: in vivo
Putamen [12] = assay: Drug uptake in anesthetized cynomolgus monkey brain putamen after 235 mins postinjection; type: ADME, organism-based, Macaca fascicularis; conditions: in vivo
[13] = Ratio of drug uptake in frontal lobe to cerebellum in anesthetized cynomolgus monkey after 35 mins postinjection; type: ADME, organism-based, Macaca fascicularis; conditions: in vivo
Pons [14] = assay: Drug uptake in anesthetized cynomolgus monkey brain pons after 85 mins postinjection; type: ADME, organism-based, Macaca fascicularis; conditions: in vivo
Medulla [15] = assay: Drug uptake in anesthetized cynomolgus monkey brain medulla after 205 mins postinjection; type: ADME, organism-based, Macaca fascicularis; conditions: in vivo
[16] = Drug uptake in anesthetized cynomolgus monkey brain occipital lobe after 195 mins postinjection; type: ADME, organism-based, Macaca fascicularis; conditions: in vivo, 3.25 h
[17] = Drug uptake in anesthetized cynomolgus monkey brain cerebellum after 205 mins postinjection; type: ADME, organism-based, Macaca fascicularis; conditions: in vivo
[18] = Drug uptake in anesthetized cynomolgus monkey brain frontal lobe after 185 mins postinjection; type: ADME, organism-based, Macaca fascicularis; conditions: in vivo
[19] = Ratio of drug uptake in caudate to cerebellum in anesthetized cynomolgus monkey after 0.5 mins postinjection; type: ADME, organism-based, Macaca fascicularis; conditions: in vivo
Putamen [20] = assay: Drug uptake in anesthetized cynomolgus monkey brain putamen after 185 mins postinjection; type: ADME, organism-based, Macaca fascicularis; conditions: in vivo
Pons [21] = assay: Drug uptake in anesthetized cynomolgus monkey brain pons after 135 mins postinjection; type: ADME, organism-based, Macaca fascicularis; conditions: in vivo, 2.25 h
Medulla [22] = assay: Drug uptake in anesthetized cynomolgus monkey brain medulla after 0.5 mins postinjection; type: ADME, organism-based, Macaca fascicularis; conditions: in vivo
Medulla [23] = assay: Drug uptake in anesthetized cynomolgus monkey brain medulla after 1.5 mins postinjection; type: ADME, organism-based, Macaca fascicularis; conditions: in vivo, 0.025 h
Medulla [24] = assay: Drug uptake in anesthetized cynomolgus monkey brain medulla after 35 mins postinjection; type: ADME, organism-based, Macaca fascicularis; conditions: in vivo
[25] = Ratio of drug uptake in putamen to cerebellum in anesthetized cynomolgus monkey after 45 mins postinjection; type: ADME, organism-based, Macaca fascicularis; conditions: in vivo, 0.75 h
Medulla [26] = assay: Drug uptake in anesthetized cynomolgus monkey brain medulla after 235 mins postinjection; type: ADME, organism-based, Macaca fascicularis; conditions: in vivo
[27] = Drug uptake in anesthetized cynomolgus monkey brain cerebellum after 3.5 mins postinjection; type: ADME, organism-based, Macaca fascicularis; conditions: in vivo
[28] = Drug uptake in anesthetized cynomolgus monkey brain cerebellum after 135 mins postinjection; type: ADME, organism-based, Macaca fascicularis; conditions: in vivo, 2.25 h
[29] = Drug uptake in anesthetized cynomolgus monkey brain cerebellum after 155 mins postinjection; type: ADME, organism-based, Macaca fascicularis; conditions: in vivo
[30] = Drug uptake in anesthetized cynomolgus monkey brain cerebellum after 175 mins postinjection; type: ADME, organism-based, Macaca fascicularis; conditions: in vivo
[31] = Ratio of drug uptake in putamen to cerebellum in anesthetized cynomolgus monkey after 235 mins postinjection; type: ADME, organism-based, Macaca fascicularis; conditions: in vivo
Caudate [32] = assay: Drug uptake in anesthetized cynomolgus monkey brain caudate after 9.5 mins postinjection; type: ADME, organism-based, Macaca fascicularis, Caudate nucleus; conditions: in vivo
Caudate [33] = assay: Drug uptake in anesthetized cynomolgus monkey brain caudate after 145 mins postinjection; type: ADME, organism-based, Macaca fascicularis, Caudate nucleus; conditions: in vivo
Putamen [34] = assay: Drug uptake in anesthetized cynomolgus monkey brain putamen after 1.5 mins postinjection; type: ADME, organism-based, Macaca fascicularis; conditions: in vivo, 0.025 h
Putamen [35] = assay: Drug uptake in anesthetized cynomolgus monkey brain putamen after 2.5 mins postinjection; type: ADME, organism-based, Macaca fascicularis; conditions: in vivo
[36] = Ratio of drug uptake in occipital lobe to cerebellum in anesthetized cynomolgus monkey after 0.5 mins postinjection; type: ADME, organism-based, Macaca fascicularis; conditions: in vivo
[37] = Ratio of drug uptake in occipital lobe to cerebellum in anesthetized cynomolgus monkey after 12.5 mins postinjection; type: ADME, organism-based, Macaca fascicularis; conditions: in vivo
Thalamus [38] = assay: Drug uptake in anesthetized cynomolgus monkey brain thalamus after 15.5 mins postinjection; type: ADME, organism-based, Macaca fascicularis; set-up: unit not given here; conditions: in vivo
Putamen [39] = assay: Drug uptake in anesthetized cynomolgus monkey brain putamen after 12.5 mins postinjection; type: ADME, organism-based, Macaca fascicularis; set-up: unit not given here; conditions: in vivo
Putamen [40] = assay: Drug uptake in anesthetized cynomolgus monkey brain putamen after 105 mins postinjection; type: ADME, organism-based, Macaca fascicularis; set-up: unit not given here; conditions: in vivo, 1.75 h
Thalamus [41] = assay: Drug uptake in anesthetized cynomolgus monkey brain thalamus after 55 mins postinjection; type: ADME, organism-based, Macaca fascicularis; set-up: unit not given here; conditions: in vivo
Thalamus [42] = assay: Drug uptake in anesthetized cynomolgus monkey brain thalamus after 115 mins postinjection; type: ADME, organism-based, Macaca fascicularis; set-up: unit not given here; conditions: in vivo
Thalamus [43] = assay: Drug uptake in anesthetized cynomolgus monkey brain thalamus after 145 mins postinjection; type: ADME, organism-based, Macaca fascicularis; set-up: unit not given here; conditions: in vivo
Thalamus [44] = assay: Drug uptake in anesthetized cynomolgus monkey brain thalamus after 235 mins postinjection; type: ADME, organism-based, Macaca fascicularis; set-up: unit not given here; conditions: in vivo
Midbrain [45] = assay: Drug uptake in anesthetized cynomolgus monkey brain midbrain after 2.5 mins postinjection; type: ADME, organism-based, Macaca fascicularis; set-up: unit not given here; conditions: in vivo
Midbrain [46] = assay: Drug uptake in anesthetized cynomolgus monkey brain midbrain after 27.5 mins postinjection; type: ADME, organism-based, Macaca fascicularis; set-up: unit not given here; conditions: in vivo
Midbrain [47] = assay: Drug uptake in anesthetized cynomolgus monkey brain midbrain after 35 mins postinjection; type: ADME, organism-based, Macaca fascicularis; set-up: unit not given here; conditions: in vivo
Midbrain [48] = assay: Drug uptake in anesthetized cynomolgus monkey brain midbrain after 55 mins postinjection; type: ADME, organism-based, Macaca fascicularis; set-up: unit not given here; conditions: in vivo

## O=C(OCCC[18F])C1C2CCC(CC1c1cccc(/C=C\I)c1)N2 (stereo unspecified)
[1]
  Ratio: 1.9
[2]
  Drug uptake: 3.53
[3]
  Drug uptake: 3.52
[4]
  Drug uptake: 3.35
[5]
  Drug uptake: 2.24
[6]
  Drug uptake: 2.85
[7]
  Drug uptake: 2.54
[8]
  Drug uptake: 1.99
[9]
  Ratio: 1.8
[10]
  Ratio: 1.9
[11]
  Ratio: 1
Putamen [12]
  Drug uptake: 3.02
[13]
  Ratio: 0.6
Pons [14]
  Drug uptake: 4.12
Medulla [15]
  Drug uptake: 3.76
[16]
  Drug uptake: 2.34
[17]
  Drug uptake: 1.91
[18]
  Drug uptake: 2.03
[19]
  Ratio: 1
Putamen [20]
  Drug uptake: 3.51
Pons [21]
  Drug uptake: 4.08
Medulla [22]
  Drug uptake: 0.01
Medulla [23]
  Drug uptake: 0.35
Medulla [24]
  Drug uptake: 5.04
[25]
  Ratio: 1.1
Medulla [26]
  Drug uptake: 3.15
[27]
  Drug uptake: 1.95
[28]
  Drug uptake: 2.66
[29]
  Drug uptake: 2.32
[30]
  Drug uptake: 2.37
[31]
  Ratio: 1.6
Caudate [32]
  Drug uptake: 2.7
Caudate [33]
  Drug uptake: 3.24
Putamen [34]
  Drug uptake: 0.27
Putamen [35]
  Drug uptake: 0.84
[36]
  Ratio: 0.8
[37]
  Ratio: 0.8
Thalamus [38]
  Drug uptake: 4.11
Putamen [39]
  Drug uptake: 4.08
Putamen [40]
  Drug uptake: 4.52
Thalamus [41]
  Drug uptake: 4.89
Thalamus [42]
  Drug uptake: 4.24
Thalamus [43]
  Drug uptake: 3.93
Thalamus [44]
  Drug uptake: 2.78
Midbrain [45]
  Drug uptake: 0.98
Midbrain [46]
  Drug uptake: 5.04
Midbrain [47]
  Drug uptake: 5.01
Midbrain [48]
  Drug uptake: 4.98

## O=C(OCC[18F])C1C2CCC(CC1c1cccc(/C=C\Br)c1)N2 (stereo unspecified)
[1]
  Ratio: 1.8
[2]
  Drug uptake: 2.99
[3]
  Drug uptake: 3.31
[4]
  Drug uptake: 3.16
[5]
  Drug uptake: 2.27
[6]
  Drug uptake: 2.78
[7]
  Drug uptake: 2.69
[8]
  Drug uptake: 1.97
[9]
  Ratio: 2.1
[10]
  Ratio: 2.3
[11]
  Ratio: 1
Putamen [12]
  Drug uptake: 2.98
[13]
  Ratio: 0.7
Pons [14]
  Drug uptake: 4.29
Medulla [15]
  Drug uptake: 3.14
[16]
  Drug uptake: 2.02
[17]
  Drug uptake: 1.8
[18]
  Drug uptake: 2.29
[19]
  Ratio: 0.9
Putamen [20]
  Drug uptake: 3.68
Pons [21]
  Drug uptake: 4.26
Medulla [22]
  Drug uptake: 0
Medulla [23]
  Drug uptake: 0.08
Medulla [24]
  Drug uptake: 4.97
[25]
  Ratio: 1.3
Medulla [26]
  Drug uptake: 2.72
[27]
  Drug uptake: 1.14
[28]
  Drug uptake: 2.43
[29]
  Drug uptake: 2.19
[30]
  Drug uptake: 2.03
[31]
  Ratio: 1.8
Caudate [32]
  Drug uptake: 2.36
Caudate [33]
  Drug uptake: 3.52
Putamen [34]
  Drug uptake: 0.06
Putamen [35]
  Drug uptake: 0.4
[36]
  Ratio: 1.6
[37]
  Ratio: 0.8
Thalamus [38]
  Drug uptake: 3.29
Putamen [39]
  Drug uptake: 3.69
Putamen [40]
  Drug uptake: 4.82
Thalamus [41]
  Drug uptake: 4.38
Thalamus [42]
  Drug uptake: 4.22
Thalamus [43]
  Drug uptake: 3.86
Thalamus [44]
  Drug uptake: 2.88
Midbrain [45]
  Drug uptake: 0.55
Midbrain [46]
  Drug uptake: 4.53
Midbrain [47]
  Drug uptake: 4.68
Midbrain [48]
  Drug uptake: 4.98
